Values joined by “and” are separate entries in the source; they are usually repeats but may differ in a detail not shown here. Identical values can stand only once.
Columns and labels:
hCA IX = hCA IX (Homo sapiens, UniProt Q16790); assay: biochemical; details: for Selectivity analysis hCA II/IX / Selectivity analysis hCA I/IX: SI; for Selectivity analysis hCA II/IX: hCA IX over hCA II (ratio of Ki); for Ki: Ki hCA IX, stopped-flow technique, mean from 3 different assays; for Selectivity analysis hCA I/IX: hCA IX over hCA I (ratio of Ki)
hCA I = hCA I (Homo sapiens, UniProt P00915); assay: hCA I inhibition, stopped-flow technique; format: biochemical
hCA II = hCA II (Homo sapiens, UniProt P00918); assay: hCA II inhibition, stopped-flow technique; format: biochemical
hCA XII = hCA XII (Homo sapiens, UniProt O43570); assay: hCA XII inhibition, stopped-flow technique; format: biochemical; details: for Selectivity analysis hCA I/XII / Selectivity analysis hCA II/XII: SI; for Selectivity analysis hCA I/XII: hCA XII over hCA I (ratio of Ki); for Selectivity analysis hCA II/XII: hCA XII over hCA II (ratio of Ki)
Chain of hCA XII (O43570 25-354): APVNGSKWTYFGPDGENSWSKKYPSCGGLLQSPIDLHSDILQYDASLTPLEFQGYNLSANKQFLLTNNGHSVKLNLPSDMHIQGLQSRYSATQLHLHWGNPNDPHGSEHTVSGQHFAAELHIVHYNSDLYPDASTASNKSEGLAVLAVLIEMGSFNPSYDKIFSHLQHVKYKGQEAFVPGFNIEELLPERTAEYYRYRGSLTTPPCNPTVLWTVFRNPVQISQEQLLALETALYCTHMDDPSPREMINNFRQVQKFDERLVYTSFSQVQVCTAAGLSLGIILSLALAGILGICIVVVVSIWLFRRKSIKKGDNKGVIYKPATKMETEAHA

Chain of hCA I (P00915 whole entry): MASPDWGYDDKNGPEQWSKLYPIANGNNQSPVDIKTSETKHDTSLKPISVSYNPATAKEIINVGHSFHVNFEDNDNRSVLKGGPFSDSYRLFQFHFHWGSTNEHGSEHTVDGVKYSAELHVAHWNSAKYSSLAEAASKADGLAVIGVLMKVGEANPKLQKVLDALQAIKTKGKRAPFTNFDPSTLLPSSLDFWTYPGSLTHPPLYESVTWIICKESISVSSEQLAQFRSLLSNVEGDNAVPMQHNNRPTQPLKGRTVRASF

**Q.** `NNC(=O)CSc1nc2ccccc2c(=O)n1CCc1ccc(S(N)(=O)=O)cc1` [Compound 3, 4-(2-(2-((2-hydrazineyl-2-oxoethyl)thio)-4-oxoquinazolin-3(4H)-yl)ethyl)benzenesulfonamide] was tested. Which “Selectivity analysis hCA II/IX” value (hCA IX) did it give?
**A.** The value was 0.31.

**Q.** `NS(=O)(=O)c1ccc(CCn2c(SCC(=O)NN=Cc3cccc(O)c3)nc3ccccc3c2=O)cc1` [Compound 6, 4-(2-(2-((2-(2-(3-Hydroxybenzylidene)hydrazineyl)-2-oxoethyl)thio)-4-oxoquinazolin-3(4H)-yl)ethyl)benzenesulfonamide] was tested. Which Ki (hCA I) did it give?
**A.** Its Ki is 957 nM.

**Q.** And the Ki (hCA II)?
**A.** The Ki was 90.1 nM.

**Q.** What about the Ki (hCA IX) of the same compound?
**A.** Its Ki is 38.9 nM.

**Q.** And the “Selectivity analysis hCA I/IX” value (hCA IX)?
**A.** Its value is 24.60.

**Q.** And the “Selectivity analysis hCA II/IX” value (hCA IX)?
**A.** The value was 2.31.

**Q.** And the Ki (hCA XII)?
**A.** The Ki was 34.7 nM.

**Q.** What about the “Selectivity analysis hCA I/XII” value (hCA XII) of the same compound?
**A.** Its value is 27.58.

**Q.** And the “Selectivity analysis hCA II/XII” value (hCA XII)?
**A.** The value was 2.60.

**Q.** With `NS(=O)(=O)c1ccc(CCn2c(SCC(=O)NN=Cc3ccc(O)cc3)nc3ccccc3c2=O)cc1` [Compound 7, 4-(2-(2-((2-(2-(4-Hydroxybenzylidene)hydrazineyl)-2-oxoethyl)thio)-4-oxoquinazolin-3(4H)-yl)ethyl)benzenesulfonamide] as the compound, how does the Ki (hCA I) read?
**A.** The Ki was 665 nM.

**Q.** And the Ki (hCA II)?
**A.** The Ki was 76.4 nM.

**Q.** What about the Ki (hCA IX) of the same compound?
**A.** The Ki was 62.6 nM and 62.2 nM.

**Q.** What about the “Selectivity analysis hCA I/IX” value (hCA IX) of the same compound?
**A.** The value was 10.68.

**Q.** What about the “Selectivity analysis hCA II/IX” value (hCA IX) of the same compound?
**A.** Its value is 1.23.

**Q.** And the Ki (hCA XII)?
**A.** Its Ki is 19.5 nM.

**Q.** And the “Selectivity analysis hCA I/XII” value (hCA XII)?
**A.** The value was 34.08.

**Q.** What about the “Selectivity analysis hCA II/XII” value (hCA XII) of the same compound?
**A.** The value was 3.92.

**Q.** With `COc1ccc(C=NNC(=O)CSc2nc3ccccc3c(=O)n2CCc2ccc(S(N)(=O)=O)cc2)cc1` [Compound 10, 4-(2-(2-((2-(2-(4-Methoxybenzylidene)hydrazineyl)-2-oxoethyl)thio)-4-oxoquinazolin-3(4H)-yl)ethyl)benzenesulfonamide] as the compound, how does the Ki (hCA I) read?
**A.** The Ki was 558 nM.

**Q.** And the Ki (hCA II)?
**A.** Its Ki is 83.4 nM.

**Q.** And the Ki (hCA IX)?
**A.** Its Ki is 49.7 nM.

**Q.** And the “Selectivity analysis hCA I/IX” value (hCA IX)?
**A.** The value was 11.23.

**Q.** And the “Selectivity analysis hCA II/IX” value (hCA IX)?
**A.** The value was 1.68.

**Q.** What about the Ki (hCA XII) of the same compound?
**A.** Its Ki is 46.5 nM.

**Q.** And the “Selectivity analysis hCA I/XII” value (hCA XII)?
**A.** Its value is 12.00.

**Q.** What about the “Selectivity analysis hCA II/XII” value (hCA XII) of the same compound?
**A.** The value was 1.79.

**Q.** Which results are given for `COc1ccc(C=NNC(=O)CSc2nc3ccccc3c(=O)n2CCc2ccc(S(N)(=O)=O)cc2)c(OC)c1` [Compound 11, 4-(2-(2-((2-(2-(2,4-Dimethoxybenzylidene)hydrazineyl)-2-oxoethyl)thio)-4-oxoquinazolin-3(4H)-yl)ethyl)benzenesulfonamide]?
**A.** Ki (hCA I): 2300 nM; Ki (hCA II): 50.9 nM; Ki (hCA IX): 52.7 nM; Selectivity analysis hCA I/IX (hCA IX): 43.60; Ki (hCA XII): 74.3 nM; Selectivity analysis hCA I/XII (hCA XII): 30.928; Selectivity analysis hCA II/XII (hCA XII): 0.68

**Q.** What does the source list for `COc1ccc(C=NNC(=O)CSc2nc3ccccc3c(=O)n2CCc2ccc(S(N)(=O)=O)cc2)cc1OC` [Compound 12, 4-(2-(2-((2-(2-(3,4-Dimethoxybenzylidene)hydrazineyl)-2-oxoethyl)thio)-4-oxoquinazolin-3(4H)-yl)ethyl)benzenesulfonamide]?
**A.** Ki (hCA I): 1060 nM; Ki (hCA II): 260 nM; Ki (hCA IX): 88.3 nM; Selectivity analysis hCA I/IX (hCA IX): 11.98; Selectivity analysis hCA II/IX (hCA IX): 2.94; Ki (hCA XII): 69.2 nM; Selectivity analysis hCA I/XII (hCA XII): 15.289; Selectivity analysis hCA II/XII (hCA XII): 3.75

**Q.** With `COc1cc(C=NNC(=O)CSc2nc3ccccc3c(=O)n2CCc2ccc(S(N)(=O)=O)cc2)cc(OC)c1OC` [Compound 13, 4-(2-(4-Oxo-2-((2-Oxo-2-(2-(3,4,5-trimethoxybenzylidene)hydrazineyl)ethyl)thio)quinazolin-3(4H)-yl)ethyl)benzenesulfonamide] as the compound, how does the Ki (hCA I) read?
**A.** The Ki was 1980 nM.

**Q.** What about the Ki (hCA II) of the same compound?
**A.** Its Ki is 665 nM.

**Q.** And the Ki (hCA IX)?
**A.** The Ki was 124 nM.

**Q.** And the “Selectivity analysis hCA I/IX” value (hCA IX)?
**A.** The value was 16.05.

**Q.** And the “Selectivity analysis hCA II/IX” value (hCA IX)?
**A.** Its value is 5.38.

**Q.** What about the Ki (hCA XII) of the same compound?
**A.** The Ki was 91.5 nM.

**Q.** And the “Selectivity analysis hCA I/XII” value (hCA XII)?
**A.** Its value is 21.66.

**Q.** What about the “Selectivity analysis hCA II/XII” value (hCA XII) of the same compound?
**A.** The value was 7.27.

**Q.** Which Ki (hCA I) does the source give for `COc1cc(C=NNC(=O)CSc2nc3ccccc3c(=O)n2CCc2ccc(S(N)(=O)=O)cc2)ccc1O` [Compound 14, 4-(2-(2-((2-(2-(4-Hydroxy-3-methoxybenzylidene)hydrazineyl)-2-oxoethyl)thio)-4-oxoquinazolin-3(4H)-yl)ethyl)benzenesulfonamide] here?
**A.** Its Ki is 857 nM.

**Q.** And the Ki (hCA II)?
**A.** Its Ki is 29.7 nM.

**Q.** What about the Ki (hCA IX) of the same compound?
**A.** The Ki was 60.1 nM.

**Q.** What about the “Selectivity analysis hCA I/IX” value (hCA IX) of the same compound?
**A.** Its value is 14.25.

**Q.** And the “Selectivity analysis hCA II/IX” value (hCA IX)?
**A.** Its value is 0.50.

**Q.** And the Ki (hCA XII)?
**A.** The Ki was 14.2 nM.

**Q.** And the “Selectivity analysis hCA I/XII” value (hCA XII)?
**A.** Its value is 60.35.

**Q.** And the “Selectivity analysis hCA II/XII” value (hCA XII)?
**A.** Its value is 2.09.

**Q.** `NS(=O)(=O)c1ccc(CCn2c(SCC(=O)NN=Cc3ccc4c(c3)OCO4)nc3ccccc3c2=O)cc1` [Compound 15, 4-(2-(2-((2-(2-(Benzo[d][1,3]dioxol-5-ylmethylene)hydrazineyl)-2-oxoethyl)thio)-4-oxoquinazolin-3(4H)-yl)ethyl)benzenesulfonamide] was tested. Which Ki (hCA I) did it give?
**A.** Its Ki is 692 nM.

**Q.** And the Ki (hCA II)?
**A.** Its Ki is 101 nM.

**Q.** What about the Ki (hCA IX) of the same compound?
**A.** The Ki was 16.5 nM.

**Q.** And the “Selectivity analysis hCA I/IX” value (hCA IX)?
**A.** The value was 41.95.

**Q.** What about the “Selectivity analysis hCA II/IX” value (hCA IX) of the same compound?
**A.** The value was 6.10.

**Q.** What about the Ki (hCA XII) of the same compound?
**A.** The Ki was 52.8 nM.

**Q.** What about the “Selectivity analysis hCA I/XII” value (hCA XII) of the same compound?
**A.** Its value is 13.11.

**Q.** And the “Selectivity analysis hCA II/XII” value (hCA XII)?
**A.** Its value is 1.91.

**Q.** What does the source list for `COc1ccc(C(C)=NNC(=O)CSc2nc3ccccc3c(=O)n2CCc2ccc(S(N)(=O)=O)cc2)cc1OC` [Compound 19, 4-(2-(2-((2-(2-(1-(3,4-Dimethoxyphenyl)ethylidene)hydrazineyl)-2-oxoethyl)thio)-4-oxoquinazolin-3(4H)-yl)ethyl)benzenesulfonamide]?
**A.** Ki (hCA I): 825 nM; Ki (hCA II): 189 nM; Ki (hCA IX): 40.3 nM; Selectivity analysis hCA I/IX (hCA IX): 20.46; Selectivity analysis hCA II/IX (hCA IX): 4.70; Ki (hCA XII): 68.1 nM; Selectivity analysis hCA I/XII (hCA XII): 12.108; Selectivity analysis hCA II/XII (hCA XII): 2.77

**Q.** How did the Ki (hCA I) turn out when `COc1ccc(OC)c(C(C)=NNC(=O)CSc2nc3ccccc3c(=O)n2CCc2ccc(S(N)(=O)=O)cc2)c1` [Compound 20, 4-(2-(2-((2-(2-(1-(2,5-Dimethoxyphenyl)ethylidene)hydrazineyl)-2-oxoethyl)thio)-4-oxoquinazolin-3(4H)-yl)ethyl)benzenesulfonamide] was run?
**A.** Its Ki is 1690 nM.

**Q.** What about the Ki (hCA II) of the same compound?
**A.** The Ki was 228 nM.

**Q.** And the Ki (hCA IX)?
**A.** Its Ki is 29.4 nM.

**Q.** And the “Selectivity analysis hCA I/IX” value (hCA IX)?
**A.** The value was 57.65.

**Q.** What about the “Selectivity analysis hCA II/IX” value (hCA IX) of the same compound?
**A.** Its value is 7.77.

**Q.** What about the Ki (hCA XII) of the same compound?
**A.** Its Ki is 79.9 nM.

**Q.** And the “Selectivity analysis hCA I/XII” value (hCA XII)?
**A.** Its value is 21.21.

**Q.** And the “Selectivity analysis hCA II/XII” value (hCA XII)?
**A.** The value was 2.86.

**Q.** How did the Ki (hCA I) turn out when `COc1cc(OC)cc(C(C)=NNC(=O)CSc2nc3ccccc3c(=O)n2CCc2ccc(S(N)(=O)=O)cc2)c1` [Compound 21, 4-(2-(2-((2-(2-(1-(3,5-Dimethoxyphenyl)ethylidene)hydrazineyl)-2-oxoethyl)thio)-4-oxoquinazolin-3(4H)-yl)ethyl)benzenesulfonamide] was run?
**A.** Its Ki is 1160 nM.

**Q.** What about the Ki (hCA II) of the same compound?
**A.** Its Ki is 131 nM.

**Q.** What about the Ki (hCA IX) of the same compound?
**A.** Its Ki is 52.7 nM.

**Q.** What about the “Selectivity analysis hCA I/IX” value (hCA IX) of the same compound?
**A.** Its value is 21.95.

**Q.** And the “Selectivity analysis hCA II/IX” value (hCA IX)?
**A.** The value was 2.48.

**Q.** And the Ki (hCA XII)?
**A.** Its Ki is 58 nM.

**Q.** And the “Selectivity analysis hCA I/XII” value (hCA XII)?
**A.** Its value is 19.95.

**Q.** What about the “Selectivity analysis hCA II/XII” value (hCA XII) of the same compound?
**A.** Its value is 2.25.

**Q.** How did the Ki (hCA I) turn out when `COc1cc(C(C)=NNC(=O)CSc2nc3ccccc3c(=O)n2CCc2ccc(S(N)(=O)=O)cc2)cc(OC)c1OC` [Compound 22, 4-(2-(4-Oxo-2-((2-oxo-2-(2-(1-(3,4,5-trimethoxyphenyl)ethylidene)hydrazineyl)ethyl)thio)quinazolin-3(4H)-yl)ethyl)benzenesulfonamide] was run?
**A.** Its Ki is 2310 nM.

**Q.** What about the Ki (hCA II) of the same compound?
**A.** Its Ki is 333 nM.

**Q.** And the Ki (hCA IX)?
**A.** Its Ki is 184 nM.

**Q.** And the “Selectivity analysis hCA I/IX” value (hCA IX)?
**A.** The value was 12.52.

**Q.** And the “Selectivity analysis hCA II/IX” value (hCA IX)?
**A.** The value was 1.80.

**Q.** What about the Ki (hCA XII) of the same compound?
**A.** Its Ki is 85.2 nM.

**Q.** What about the “Selectivity analysis hCA I/XII” value (hCA XII) of the same compound?
**A.** Its value is 27.09.

**Q.** And the “Selectivity analysis hCA II/XII” value (hCA XII)?
**A.** Its value is 3.90.
